The record followed here is patent US20240156767A1, “SCREENING METHOD FOR GLP-1 SECRETION REGULATION AGENT, GLP-1 SECRETION REGULATION AGENT, COMPOSITION FOR PREVENTING OR AMELIORATING DIABETES, OBESITY, POSTPRANDIAL HYPERGLYCEMIA, NEURODEGENERATIVE DISEASE, HYPOGLYCEMIA, ADIPOSITY, OR NESIDIOBLASTOSIS, METHOD FOR PROMOTING SECRETION OF GLP-1 IN …” (The Nisshin OilliO Group, Ltd., priority 2021, published 2024).

In one test the test system is wild-type mice. The test is described as follows: Administration test: plasma GLP-1 concentration in wild-type mice (ELISA). In kind it is in vivo. The settings on record: WT mice, 1000 mg/kg oral; for Relative GLP-1 (plasma GLP-1 concentration relative to before administration = 1): 120 minutes after administration, mean±standard error. On the procedure: An administration test was carried out by the following method to examine an effect of administration of various medium chain fatty acids (capric acid or lauric acid, both are a free form) to mice on plasma GLP-1 secretion. The above medium chain fatty acids correspond to GPR84 agonists. A control sample (carboxymethylcellulose), a capric acid sample, and a lauric acid sample were prepared in the same manner as in the <Test 2> above. Based on the following method, any one of a control sample, a capric acid sample, and a lauric acid sample was administered to mice in each group. In this test, two types of mice, that is, wild-type mice and GPR84 knockout mice, were prepared. As wild-type mice, 18 C57BL/6 male mice at 7- to 9-weeks old (purchased from Japan SLC, Inc.) were used. As the GPR84 knockout mice, 12 mice were prepared using C57BL/6 according to the method by Wang et al. (Pharmacological Research Volume 164, February 2021, 105406). Furthermore, the age in weeks of the GPR84 knockout mice was the same as that of the wild-type mice. Each mouse was acclimatized for one week, and then divided into six groups (a control sample-administered group, a capric acid sample-administered group, and a lauric acid sample administration group for each of the wild-type mice and the GPR84 knockout mice) so that average value of the body weight is uniform in each group. Note here that the mice were reared in plastic cages under an environment of temperature of 24±1° C., humidity of 50±10%, and a 12-hour light-dark cycle (lighting from 8:00 to 20:00). Water and solid feed (trade name “CLEA Rodent Diet CE-2 for mice, rats and hamsters”, manufactured by CLEA Japan Co., Ltd.) were fed ad libitum. However, the day before the glucose tolerance test, fasting was started from 17:00, and on the day of the test, the administration was started from 10:00. Each sample (any one of a control sample, a capric acid sample, and a lauric acid sample) was administered to each group of mice after blood was collected from the tail vein. […] Plasma was prepared by a conventional method from the blood obtained before and after sample administration, and the plasma GLP-1 concentration (pM) was measured. The plasma GLP-1 concentration was measured by ELISA using a commercially available kit (trade name “Glucagon Like Peptide-1 (Active) ELIS”, manufactured by Sigma-Aldrich). The data in FIG. 3 and Table 3 are expressed as relative values (Relative GLP-1) when the average value of plasma GLP-1 concentration before administration of each sample is set to “1”, and expressed as “mean±standard error of the relative values”. Dunnet's test was used to test significant differences between trials, and significant differences were determined to exist when the risk rate was less than 5% (*p<0.05). […]

The subject of another test is STC-1 cells. The test is described as follows: Cell culture test: GLP-1 secretion from enteroendocrine STC-1 cells (ELISA). In kind it is cell-based. The settings on record: for GLP-1 CONCENTRATION: 30 minutes after sample, mean±standard error; for Effect on GLP-1 secretion from STC-1 cells (in words): 0.01-1.0 mM. On the procedure: By carrying out a cell culture test (in vitro test) by the following method, and administering various medium chain fatty acids (capric acid or lauric acid, both are a free form) to enteroendocrine cells (STC-1 cells), an effect of each medium chain fatty acid on GLP-1 secretion was examined. The above medium chain fatty acids correspond to GPR84 agonists. To the same dimethyl sulfoxide (1 ml) as in the (1-1) above, 172 mg of capric acid (trade name “Decanoic Acid <Capric Acid>”, manufactured by New Check Prep) was added to obtain 1000 mM of capric acid samples. A 1000 mM capric acid sample (0.1 ml) was added to dimethylsulfoxide (0.9 ml) to obtain a 100 mM capric acid sample. A 100 mM capric acid sample (0.1 ml) was added to dimethylsulfoxide (0.9 ml) to obtain a 10 mM capric acid sample. Note here that when capric acid was added to dimethylsulfoxide, a mixture was mixed while heating to prepare a sample having a uniform capric acid concentration. To the same dimethylsulfoxide (1 ml) as in the (1-1) above, 200 mg of lauric acid (trade name “Dodecanoic Acid <Lauric Acid>”, manufactured by New Check Prep) was added to obtain 1000 mM of lauric acid sample. A 1000 mM lauric acid sample (0.1 ml) was added to dimethylsulfoxide (0.9 ml) to obtain a 100 mM lauric acid sample. A 100 mM lauric acid sample (0.1 ml) was added to dimethylsulfoxide (0.9 ml) to obtain a 10 mM lauric acid sample. Note here that when lauric acid was added to dimethyl sulfoxide, the mixture was mixed while heating to prepare a sample having a uniform lauric acid concentration. STC-1 cells (trade name “STC-1”, manufactured by American Type Culture Collection) were cultured in a medium at 37° C. in 5% CO2 for 48 hours to obtain STC-1 cells for testing. Note here that as the medium, a DMEM medium (trade name “Dulbecco's Modified Eagle Medium (High Glucose)”, manufactured by Sigma-Aldrich) including 15% horse serum (trade name “Horse Serum, New Zealand origin”, manufactured by Gibco) and 5% fetal bovine serum (trade name “Fetal Bovine Serum (FBS) Standard, Origin South America”, manufactured by Cosmo Bio) was used. The culture medium for STC-1 cells was replaced with a serum-free medium (300 μl/well), starvation was carried out for 30 minutes, then the serum-free medium was replaced with a new serum-free medium (300 μl/well), and 0.3 μl each of any one of samples was added to each well. Thirty minutes after administration of the sample, the medium was collected and mixed in a 1.5 ml tube in which 3 μL of DPP4 inhibitor (trade name “DPP IV Inhibitor”, manufactured by Sigma-Aldrich) had been placed in advance. Then, each tube was centrifuged at 4° C. at 1,000×g for 5 minutes, and the supernatant was collected in a new 1.5 ml tube. GLP-1 concentration (nM) in the collected supernatant was measured. Note here that the GLP-1 concentration was measured by ELISA method using a commercially available kit (trade name “Glucagon Like Peptide-1 (Active) ELISA”, manufactured by Sigma-Aldrich). In the data of FIG. 1 and Table 1, the measured values of GLP-1 concentration are expressed as “mean±standard error”. Dunnet's test was used to test significant differences between trials, and significant differences were determined to exist when the risk rate was less than 5% (*p<0.05). Also, the sample concentrations in FIG. 1 and Table 1 indicate the concentrations in the medium in the cell culture test.

Take `CCCCCCCCCC(=O)O` [Capric acid, capric acid (n-decanoic acid)]: in the test with wild-type mice, the “Effect on plasma GLP-1 concentration (in words)” value was “significantly increased the plasma GLP-1 concentration”. Also, the “Relative GLP-1 (plasma GLP-1 concentration relative to before administration = 1)” value in the test with wild-type mice was 1.65 ± 0.29 *. Further, the “GLP-1 CONCENTRATION” value with STC-1 cells (0.01 mM in medium) was 1.235 ± 0.120 nM; in the test on STC-1 cells (0.1 mM in medium) it was 1.517 ± 0.005 nM; in the test with STC-1 cells (1.0 mM in medium), 4.629 ± 0.087 * nM. In the test on STC-1 cells, the “Effect on GLP-1 secretion from STC-1 cells (in words)” value was “promoted GLP-1 secretion”.
With `CCCCCCCCCCCC(=O)O` [Lauric acid, lauric acid], the “Effect on plasma GLP-1 concentration (in words)” value with wild-type mice is “significantly increased the plasma GLP-1 concentration”. The “Relative GLP-1 (plasma GLP-1 concentration relative to before administration = 1)” value with wild-type mice is on record as 3.02 ± 0.67 *. Also, the “GLP-1 CONCENTRATION” value in the test with STC-1 cells (0.01 mM in medium) is on record as 1.827 ± 0.060 * nM; in the test on STC-1 cells (0.1 mM in medium), 3.915 ± 0.197 * nM; with STC-1 cells (1.0 mM in medium), 4.268 ± 0.084 * nM. The “Effect on GLP-1 secretion from STC-1 cells (in words)” value with STC-1 cells is given as “promoted GLP-1 secretion”.
